Common to all, as to type: cell-based
Experiment [1] deals with LNCaP cells. Nature of the experiment: CCK-8 in vitro cytotoxicity assay, LNCaP. As to conditions: human prostate cancer cell line LNCaP, CCK-8, 24 h exposure, mean ± SD of three experiments. Here is the method: (§1) The synthesized target compounds 5 to 29 were evaluated for their in vitro cytotoxic activities against the three human prostate cancer cell lines (PC-3, LNCaP, and DU145), and compared with their effects on human prostate epithelial cell line RWPE-1 by CCK-8 assay.
(§2) PC-3 and RWPE-1 cells were cultured in Dulbecco’s modification Eagle’s medium (DMEM, Invitrogen, Carlsbad, CA, USA) supplemented with 10% fetal bovine serum (FBS, Hyclone, Logan, UT, USA), 100 U/mL penicillin and 0.1 mg/mL streptomycin (Invitrogen). DU145 cells were cultured in RPMI1640 media supplemented with 10% fetal bovine serum (FBS, Hyclone), 100 U/mL penicillin and 0.1 mg/mL streptomycin (Invitrogen). LNCaP cells were cultured in F12 media supplemented with 10% fetal bovine serum (FBS, Hyclone), 100 U/mL penicillin and 0.1 mg/mL streptomycin (Invitrogen). The cells were incubated at 37 °C in a humidified atmosphere with 5% CO2.
(§3) Cell proliferation was measured with the Cell Counting Kit-8 (CCK-8) assay kit (Dojindo Corp., Kumamoto, Japan). Cells were harvested during logarithmic growth phase and seeded in 96-well plates at a density of 1 × 10^5 cells/mL, and cultured at 37 °C in a humidified incubator (5% CO2) for 24 h, followed by exposure to various concentrations of compounds tested for 24 h. Subsequently 10 μL of CCK-8 (Dojindo) was added to each well, the cells were then incubated for an additional 1 h at 37 °C to convert WST-8 into formazan. Cell growth inhibition was determined by measuring the absorbance (Abs) at λ = 450 nm using amicroplate reader. Three independent experiments were performed. Cell growth inhibition was calculated according to the following equation: Growth inhibition = (1 − OD of treated cells/OD of control cells) × 100%
(§4) The half maximal inhibitory concentrations (IC50) were obtained from linear regression analysis of the concentration-response curves plotted for each tested compound.

In experiment [2] the test system is RWPE-1 cells. Nature of the experiment: CCK-8 in vitro cytotoxicity assay, RWPE-1 normal prostate epithelial cells. As to conditions: human prostate epithelial cell line RWPE-1 (normal), CCK-8, 24 h exposure, mean ± SD of three experiments. The method, then: as §1, §2, §3, §4
The test system of experiment [3] is PC-3 cells. Nature of the experiment: CCK-8 in vitro cytotoxicity assay, PC-3. As to conditions: human prostate cancer cell line PC-3, CCK-8, 24 h exposure, mean ± SD of three experiments. Here is the method:
as §1, §2, §3, §4

The test system of experiment [4] is DU145 cells. Nature of the experiment: CCK-8 in vitro cytotoxicity assay, DU145. As to conditions: DU-145; human prostate cancer cell line DU145, CCK-8, 24 h exposure, mean ± SD of three experiments. Here is the method: as §1, §2, §3, §4

The structures appear in SMILES notation. Where only a bound is given, the exact number is not on record here.

With `COc1ccccc1N1CCN(CC(O)COc2cccc3ccccc23)CC1` (stereo not shown) [naftopidil, reference compound], the IC50 in experiment [1] (Homo sapiens, LNCaP, 24 h) is 22.4 ± 0.61 µM; in experiment [2], more than 50 µM; in experiment [3], 42.1 ± 0.79 µM; in experiment [4], 34.58 ± 0.31 µM.

For the compound `Clc1ccc(N2CCN(CCc3ccc(COc4ccc5c(c4)OCO5)cc3)CC2)cc1` [Compound 20, 1-(2-(4-((Benzo[d][1,3]dioxol-5-yloxy)methyl)phenyl)ethyl)-4-(4-chlorophenyl)piperazine], the IC50 in experiment [1] (Homo sapiens, LNCaP, 24 h) was more than 50 µM; in experiment [2], more than 50 µM; in experiment [3] it was more than 50 µM; in experiment [4], more than 50 µM.

For the compound `c1ccc(C2CCN(CCc3ccc(COc4ccc5c(c4)OCO5)cc3)CC2)cc1` [Compound 28, 1-(2-(4-((Benzo[d][1,3]dioxol-5-yloxy)methyl)phenyl)ethyl)-4-phenylpiperidine], the IC50 in experiment [1] (Homo sapiens, LNCaP, 24 h) was 18.2 ± 1.88 µM; in experiment [2], 28.5 ± 2.18 µM; in experiment [3], more than 50 µM; in experiment [4], 24.7 ± 2.22 µM.

As to `Clc1cccc(N2CCN(CCc3ccc(COc4ccc5c(c4)OCO5)cc3)CC2)c1Cl` [Compound 22, 1-(2-(4-((Benzo[d][1,3]dioxol-5-yloxy)methyl)phenyl)ethyl)-4-(2,3-dichlorophenyl)piperazine], the IC50 is 39.4 ± 0.54 µM in experiment [1] (Homo sapiens, LNCaP, 24 h); more than 50 µM in experiment [2]; more than 50 µM in experiment [3]; more than 50 µM in experiment [4].

For `COc1ccc(Cl)cc1N1CCN(CCc2ccc(COc3ccc4c(c3)OCO4)cc2)CC1` [Compound 23, 1-(2-(4-((Benzo[d][1,3]dioxol-5-yloxy)methyl)phenyl)ethyl)-4-(5-chloro-2-methoxyphenyl)piperazine], the IC50 in experiment [1] (Homo sapiens, LNCaP, 24 h) was 33.2 ± 2.69 µM; in experiment [2] it was 35.9 ± 1.25 µM; in experiment [3] it was more than 50 µM; in experiment [4], more than 50 µM.

Regarding `COc1cccc(N2CCN(CCc3ccc(COc4ccc5c(c4)OCO5)cc3)CC2)c1` [Compound 14, 1-(2-(4-((Benzo[d][1,3]dioxol-5-yloxy)methyl)phenyl)ethyl)-4-(3-methoxyphenyl)piperazine], the IC50 in experiment [1] (Homo sapiens, LNCaP, 24 h) was more than 50 µM; in experiment [2], 39 ± 0.77 µM; in experiment [3], more than 50 µM; in experiment [4], more than 50 µM.

As to `Cc1cccc(N2CCN(CCc3ccc(COc4ccc5c(c4)OCO5)cc3)CC2)c1` [Compound 11, 1-(2-(4-((Benzo[d][1,3]dioxol-5-yloxy)methyl)phenyl)ethyl)-4-m-tolylpiperazine], the IC50 in experiment [1] (Homo sapiens, LNCaP, 24 h) was more than 50 µM; in experiment [2], more than 50 µM; in experiment [3] it was more than 50 µM; in experiment [4], more than 50 µM.

On to `c1ccc(N2CCN(CCc3ccc(COc4ccc5c(c4)OCO5)cc3)CC2)cc1` [Compound 5, 1-(2-(4-((Benzo[d][1,3]dioxol-5-yloxy)methyl)phenyl)ethyl)-4-phenylpiperazine], for which the concentration for half-maximal inhibition (IC50) in experiment [1] (Homo sapiens, LNCaP, 24 h) was 27.9 ± 1.72 µM; in experiment [2], more than 50 µM; in experiment [3], more than 50 µM; in experiment [4] it was more than 50 µM.

Regarding `Brc1ccc(N2CCN(CCc3ccc(COc4ccc5c(c4)OCO5)cc3)CC2)cc1` [Compound 24, 1-(2-(4-((Benzo[d][1,3]dioxol-5-yloxy)methyl)phenyl)ethyl)-4-(4-bromophenyl)piperazine], the IC50 in experiment [1] (Homo sapiens, LNCaP, 24 h) was 19.9 ± 1.01 µM; in experiment [2] it was more than 50 µM; in experiment [3], more than 50 µM; in experiment [4], more than 50 µM.

As to `Fc1ccc(N2CCN(CCc3ccc(COc4ccc5c(c4)OCO5)cc3)CC2)cc1` [Compound 16, 1-(2-(4-((Benzo[d][1,3]dioxol-5-yloxy)methyl)phenyl)ethyl)-4-(4-fluorophenyl)piperazine], the IC50 was 32.5 ± 1.04 µM in experiment [1] (Homo sapiens, LNCaP, 24 h); more than 50 µM in experiment [2]; more than 50 µM in experiment [3]; more than 50 µM in experiment [4].

As for `c1ccc(N2CCN(CCc3ccc(COc4ccc5c(c4)OCO5)cc3)CC2)nc1` [Compound 7, 1-(2-(4-((Benzo[d][1,3]dioxol-5-yloxy)methyl)phenyl)ethyl)-4-(pyridin-2-yl)piperazine], the IC50 was 31.2 ± 0.63 µM in experiment [1] (Homo sapiens, LNCaP, 24 h); 41.1 ± 0.54 µM in experiment [2]; more than 50 µM in experiment [3]; more than 50 µM in experiment [4].

`COc1ccc(N2CCN(CCc3ccc(COc4ccc5c(c4)OCO5)cc3)CC2)cc1` [Compound 13, 1-(2-(4-((Benzo[d][1,3]dioxol-5-yloxy)methyl)phenyl)ethyl)-4-(4-methoxyphenyl)piperazine]: the IC50 was 28.3 ± 0.49 µM in experiment [1] (Homo sapiens, LNCaP, 24 h); more than 50 µM in experiment [2]; more than 50 µM in experiment [3]; more than 50 µM in experiment [4].

As to `Fc1ccc(N2CCN(CCc3ccc(COc4ccc5c(c4)OCO5)cc3)CC2)c(F)c1` [Compound 17, 1-(2-(4-((Benzo[d][1,3]dioxol-5-yloxy)methyl)phenyl)ethyl)-4-(2,4-difluorophenyl)piperazine], the half-inhibitory concentration (IC50) in experiment [1] (Homo sapiens, LNCaP, 24 h) was 26.8 ± 1 µM; in experiment [2], 23.9 ± 0.75 µM; in experiment [3] it was more than 50 µM; in experiment [4], 26.8 ± 0.92 µM.

In the case of `FC(F)(F)c1ccccc1N1CCN(CCc2ccc(COc3ccc4c(c3)OCO4)cc2)CC1` [Compound 25, 1-(2-(4-((Benzo[d][1,3]dioxol-5-yloxy)methyl)phenyl)ethyl)-4-(2-(trifluoromethyl)phenyl)piperazine], the IC50 in experiment [1] (Homo sapiens, LNCaP, 24 h) was 32.96 ± 0.21 µM; in experiment [2] it was 18.9 ± 3.68 µM; in experiment [3], more than 50 µM; in experiment [4], more than 50 µM.

As for `N#Cc1ccc(N2CCN(CCc3ccc(COc4ccc5c(c4)OCO5)cc3)CC2)c(F)c1` [Compound 18, 4-(4-(2-(4-((Benzo[d][1,3]dioxol-5-yloxy)methyl)phenyl)ethyl)piperazin-1-yl)-3-fluorobenzonitrile], the IC50 in experiment [1] (Homo sapiens, LNCaP, 24 h) was 13.1 ± 0.51 µM; in experiment [2], more than 50 µM; in experiment [3] it was 26.9 ± 1 µM; in experiment [4] it was more than 50 µM.

On to `Cc1ccc(N2CCN(CCc3ccc(COc4ccc5c(c4)OCO5)cc3)CC2)cc1` [Compound 10, 1-(2-(4-((Benzo[d][1,3]dioxol-5-yloxy)methyl)phenyl)ethyl)-4-p-tolylpiperazine], for which the 50% inhibitory concentration (IC50) in experiment [1] (Homo sapiens, LNCaP, 24 h) was 31.9 ± 0.89 µM; in experiment [2], more than 50 µM; in experiment [3] it was more than 50 µM; in experiment [4], 47.8 ± 2.02 µM.

Turning to `Clc1ccccc1N1CCN(CCc2ccc(COc3ccc4c(c3)OCO4)cc2)CC1` [Compound 19, 1-(2-(4-((Benzo[d][1,3]dioxol-5-yloxy)methyl)phenyl)ethyl)-4-(2-chlorophenyl)piperazine], the IC50 in experiment [1] (Homo sapiens, LNCaP, 24 h) is 26.6 ± 0.4 µM; in experiment [2], 29.9 ± 0.8 µM; in experiment [3], more than 50 µM; in experiment [4], more than 50 µM.

As to `c1cnc(N2CCN(CCc3ccc(COc4ccc5c(c4)OCO5)cc3)CC2)nc1` [Compound 8, 2-(4-(2-(4-((Benzo[d][1,3]dioxol-5-yloxy)methyl)phenyl)ethyl)piperazin-1-yl)pyrimidine], the IC50 in experiment [1] (Homo sapiens, LNCaP, 24 h) is 26.6 ± 0.86 µM; in experiment [2], 31.7 ± 3.14 µM; in experiment [3] it was more than 50 µM; in experiment [4], 8.25 ± 0.16 µM.

Regarding `Fc1ccccc1N1CCN(CCc2ccc(COc3ccc4c(c3)OCO4)cc2)CC1` [Compound 15, 1-(2-(4-((Benzo[d][1,3]dioxol-5-yloxy)methyl)phenyl)ethyl)-4-(2-fluorophenyl)piperazine], the IC50 in experiment [2] is 41 ± 0.47 µM; in experiment [3], more than 50 µM; in experiment [4] it was more than 50 µM.

As for `CC(=O)c1ccc(N2CCN(CCc3ccc(COc4ccc5c(c4)OCO5)cc3)CC2)cc1` [Compound 27, 1-(4-(4-(2-(4-((Benzo[d][1,3]dioxol-5-yloxy)methyl)phenyl)ethyl)piperazin-1-yl)phenyl)ethanone], the half-inhibitory concentration (IC50) was more than 50 µM in experiment [1] (Homo sapiens, LNCaP, 24 h); 26.8 ± 3.01 µM in experiment [2]; 24.9 ± 0.68 µM in experiment [3]; more than 50 µM in experiment [4].

As to `OC1(c2ccccc2)CCN(CCc2ccc(COc3ccc4c(c3)OCO4)cc2)CC1` [Compound 29, 1-(2-(4-((Benzo[d][1,3]dioxol-5-yloxy)methyl)phenyl)ethyl)-4-phenylpiperidin-4-ol], the concentration for half-maximal inhibition (IC50) in experiment [1] (Homo sapiens, LNCaP, 24 h) is 43 ± 7.58 µM; in experiment [2] it was 19.73 ± 0.01 µM; in experiment [3], more than 50 µM; in experiment [4], 38.2 ± 2.45 µM.

`Cc1ccccc1N1CCN(CCc2ccc(COc3ccc4c(c3)OCO4)cc2)CC1` [Compound 9, 1-(2-(4-((Benzo[d][1,3]dioxol-5-yloxy)methyl)phenyl)ethyl)-4-o-tolylpiperazine]: the half-inhibitory concentration (IC50) in experiment [1] (Homo sapiens, LNCaP, 24 h) was less than 5 µM; in experiment [1] it was 3.47 ± 0.36 µM; in experiment [2], 31 ± 1.57 µM; in experiment [3] it was more than 50 µM; in experiment [4] it was more than 50 µM.

The IC50 is the concentration at which inhibition is half-maximal. Lower therefore signals greater potency.
